Measured values taken from patent US20020147318A1, “Preparation method of water soluble carboxylmethyl chitosan having anti-lipid peroxidation ability” (priority 2001, published 2002).
Converted amounts (≈) assume the structure as drawn.

Test system: lipid peroxidation in rat liver microsomes
Test: Anti-lipid peroxidation in rat liver microsomes (NADPH-induced, MDA-TBA absorbance at 535 nm)
Assay type: biochemical
Description: In the present, the rat microsomes is used to provide lipid source. The product of lipid peroxidation induced by NADPH with heat treatment (deconstructing microsome enzyme) is referred as MDA (malondialdehyde). The MDA is added with TBA (thiobarbituric acid) to form MDA-TBA compound with pink fluorescence. The MDA-TBA compound has absorption spectrum at 535 nm (or 532 nm) wavelength. The content of MDA can be manifested by the absorption degree of light at those wavelengths. Therefore, the degree of lipid peroxidation can also be known. If the content of MDA is decreased after addition of water soluble CM chitosan, the reduction of MDA can be attributed to the water soluble CM chitosan. It means that the water soluble CM chitosan has the ability of anti-lipid peroxidation. In the present invention, the anti-lipid peroxidation ability of the water soluble CM chitosan is compared with that of the Trolex (water soluble vitamin E).

Structure (SMILES): Cc1c(C)c2c(c(C)c1O)CCC(C)(C(=O)O)O2 (stereo not drawn) [Trolex]
- effect on lipid peroxidation in rat liver microsomes (addition of the substance to rat liver microsomes): can suppress the lipid peroxidation
- MDA, the product of lipid peroxidation (as the added amount of the substance is increased): monotonically decreased
- IC50 (the concentration required to suppress 50% lipid peroxidation) (rat liver microsomes, average over at least three data): 4.96 µg/mL (≈ 19.8 µM)
